# Laboratory results published in patent US9521845B2, “Beta-lactones as antibacterial agents” (LUDWIG-MAXIMILIANS-UNIVERSITÄT-MÜNCHEN, priority 2008, dated 2016).
# Columns and labels:
# [1] = system: haemolysis abilities of Staphylococcus aureus; assay: Blood agar plate-based haemolysis assay; format: cell-based
# Experimental: FIG. 3: Blood agar plate-based assay illustrating that beta-lactones have an effect on the haemolysis abilities of Staphylococcus aureus. 2.5 μL of S. aureus LB dilution (OD600=0.13 corresponding to approx. 1×10^8 cfu/ml) and 2.5 μL DMSO/lactone in DMSO were applied on Whatman Cards placed on 5% sheep blood agar plates (Heipha Diagnostika, Eppelheim, Germany) and incubated at 37° C. over night. A) Direct comparison of beta-lactones as shown in FIG. 2 at a total amount of 250 nmol applied on Whatman Cards. B) Dose down with beta-lactone compounds D3, E2 and G2 at applied concentrations of 100 mM, 50 mM, 25 mM, 12.5 mM, 6.25 mM and 0 mM (corresponding to total amounts of 250 nmol, 125 nmol, 62.5 nmol, 31.3 nmol, 15.6 nmol and 0 nmol, respectively).
# 2.5 μl, of S. aureus LB dilution (OD600 0.13 corresponding to approx. 1×10^8 cfu/ml) and 2.5 μL DMSO/beta-lactone in DMSO were applied on Whatman Cards placed on 5% sheep blood agar plates (Heipha Diagnostika, Eppelheim, Germany) and incubated at 37° C. over night. FIG. 3A directly compares the β-lactones at a total amount of 250 nmol applied on Whatman Cards. […] For D3 almost no haemolysis is observed down to a total amount of 125 nmol lactone. FIG. 5 illustrates the haemolytic activity of beta-lactone compounds D3, E2 and G2 plotted against the total amount of the respective beta-lactone, whereby a haemolysis zone size of 1.5 mm was set as 100% haemolytic activity. The data shown in FIG. 5 has been corroborated by further experimental testing.
# Haemolysis was tested on blood agar plates (5% sheep blood; Heipha Diagnostika, Eppelheim, Germany). Sterile circles of Whatman cards (No. Y) with 5 mm diameter were placed on agar plates and inoculated with 2.5 μL of the corresponding beta-lactone/DMSO and 2.5 μL stationary phase culture of S. aureus diluted to […]. The plates were incubated over night at 37° C. and the diameters of the zones around the bacterial colonies were precisely measured using a vernier caliper.
# [2] = system: extracellular DNase of S. aureus; assay: DNase assay using DNA containing agar plates; format: cell-based, Staphylococcus aureus; details: 250 nmol
# Source text: FIG. 4: Agar plate-based virulence assays.
# A dose down in FIG. 5 indicates the different potencies of structurally diverse ClpP inhibitors for E2, G2 and D3. […] Extracellular DNase also is part of the S. aureus virulence factors. Its purpose is to destroy the hosts DNA and provide a nutritional source for S. aureus.
# [3] = system: proteolysis abilities of Staphylococcus aureus; assay: Milk agar plate-based proteolysis assay; format: cell-based
# Experimental: FIG. 6: Milk agar plate-based assay illustrating that beta-lactones have an effect on the proteolysis abilities of Staphylococcus aureus. 2.5 μL of S. aureus LB dilution (OD600=0.13 corresponding to approx. 1×10^8 cfu/ml) and 2.5 μL DMSO/beta-lactone in DMSO were applied on Whatman Cards placed on 1% skim milk LB agar plates and incubated at 37° C. over night. A) Direct comparison of beta-lactones as shown in FIG. 2 at a total amount of 250 nmol applied on Whatman Cards. B) Dose down with beta-lactones D3, E2 and G2 at applied concentrations of 100 mM, 50 mM, 25 mM, 12.5 mM, 6.25 mM and 0 mM (corresponding to total amounts of 250 nmol, 125 nmol, 62.5 nmol, 31.3 nmol, 15.6 nmol and 0 nmol, respectively). C) Proteolysis zone size plotted against the total amount of the respective beta-lactone.
# 2.5 μL of S. aureus LB dilution (OD600=0.13 corresponding to approx. 1×10^8 cfu/ml) and 2.5 μL DMSO/beta-lactone in DMSO were applied on Whatman Cards placed on 1% skim milk LB agar plates and incubated at 37° C. over night. FIG. 6A directly compares the β-lactones at a total amount of 250 nmol applied on Whatman Cards. […] For D3 and E2 almost no proteolysis is observed down to a total amount of 125 nmol of the respective beta-lactone. FIG. 6C illustrates that the proteolysis zone size plotted against the total amount of beta-lactone visualizes the strong effects particularly of D3 and E2.
# [4] = system: β-Ketoacyl acyl carrier protein synthase II (KAS II); assay: ABPP labeling of bacterial proteomes, KAS II; format: binding, L. welshimeri, B. subtilis; details: 50 μM probe, FIGS. 9A and 9B
# Source text: The library of beta-lactones to be tested comprised compounds with aliphatic or aromatic substitutions varying in length and branching. To evaluate the target selectivity, the beta-lactones were screened against several gram-positive and gram-negative bacterial proteomes including Pseudomonas putida, Listeria welshimeri, Bacillus licheniformis, Bacillus subtilis and Escherichia coli, which are phylogenetically related to pathogenic strains. In addition, mouse liver cytosol was included as an eukaryotic reference proteome. Initial labeling experiments were carried out by adding individual probes at 50 μM concentration to the proteome which is sufficient to achieve full saturation of most targets. […] As an example, labeling of L. welshimeri cytosolic and membrane proteomes as well as B. subtilis cytosolic proteome with a subset of the most complementary probes is shown in FIGS. 9A and 9B. […] Most of the targeted proteins were of low abundance as shown by the direct comparison of the relative intensities observed with Coomassie staining vs. fluorescence scanning (FIG. 11).
# Proteome samples were adjusted to a final concentration of 1 mg protein/mL by dilution in PBS prior to probe labeling. […]
compound,measurement,setting,value
"C#CCCCC1OC(=O)C1CCCCCCCC=C (stereo not drawn) [D3, trans-3-(8-nonen-1-yl)-4-(4-pentyn-1-yl)oxetan-2-one]","potency ranking in haemolysis dose down (E2, G2, D3)",[1]; FIG. 5 dose down,most active
same,total amount down to which almost no haemolysis is observed,[1]; dose down 250-15.6 nmol,125 nmol
same,haemolytic activity of S. aureus,"[1]; total amount of 250 nmol applied on Whatman Cards, 5% sheep blood agar, 37° C. over night",strongly reduce
same,amount of extracellular DNase,[2],effect
same,total amount down to which almost no proteolysis is observed,[3]; dose down 250-15.6 nmol,125 nmol
same,proteolytic activity of S. aureus,"[3]; total amount of 250 nmol applied on Whatman Cards, 1% skim milk LB agar, 37° C. over night",strongly reduce
same,KAS II labeling,[4],labeled
